From ChEMBL document CHEMBL1151193, “Ancistrotanzanine C and related 5,1'- and 7,3'-coupled naphthylisoquinoline alkaloids from Ancistrocladus tanzaniensis” (J Nat Prod, 2004)
In brackets after ≈: the same amount, converted by molar mass.

tested on: Plasmodium falciparum; assay: Antiplasmodial activity against chloroquine-resistant Plasmodium falciparum K1; type: functional, organism-based; conditions: not given

Compared with `COc1cc(OC)c(-c2c(C)cc(OC)c3c(OC)cccc23)c2c1C(C)=N[C@@H](C)C2`, `COc1cc(OC)c2c(c1-c1c(C)cc(OC)c3c(OC)cccc13)C[C@H](C)N(C)[C@H]2C` [O,N-Dimethylancistrocladine] is 1.6-fold higher in IC50: 2.2 µg/mL (≈ 5.24 µM) for the first, 3.6 µg/mL (≈ 8.27 µM) for the second.

First: COc1cc2c(c(OC)c1-c1c(C)cc3cccc(OC)c3c1O)C(C)=N[C@@H](C)C2 [ANCISTROCLADIDINE]
Second: COc1cc2c(c(OC)c1-c1c(C)cc3cccc(OC)c3c1O)[C@@H](C)N(C)[C@@H](C)C2 [ANCISTROTECTORINE]
The IC50 of the first is 2.3-fold lower: 0.3 µg/mL (≈ 0.74 µM) for the first, 0.7 µg/mL (≈ 1.66 µM) for the second.

Work on `COc1c(-c2c(C)cc3cccc(OC)c3c2O)c(O)cc2c1[C@@H](C)N(C)[C@@H](C)C2` [ANCISTROTANZANINE C] yielded an IC50 of 0.1 µg/mL (≈ 0.245 µM).

tested on: Plasmodium falciparum; assay: Antiplasmodial activity against chloroquine-sensitive Plasmodium falciparum 3D7; type: functional, organism-based; conditions: not given

First: COc1cc(OC)c(-c2c(C)cc(OC)c3c(OC)cccc23)c2c1C(C)=N[C@@H](C)C2
Second: COc1cc(OC)c2c(c1-c1c(C)cc(OC)c3c(OC)cccc13)C[C@H](C)N(C)[C@H]2C [O,N-Dimethylancistrocladine]
The IC50 of the first is 6.3-fold lower: 5.4 µg/mL (≈ 12.9 µM) for the first, 34.1 µg/mL (≈ 78.3 µM) for the second.

First: COc1cc2c(c(OC)c1-c1c(C)cc3cccc(OC)c3c1O)C(C)=N[C@@H](C)C2 [ANCISTROCLADIDINE]
Second: COc1cc2c(c(OC)c1-c1c(C)cc3cccc(OC)c3c1O)[C@@H](C)N(C)[C@@H](C)C2 [ANCISTROTECTORINE]
The IC50 of the first is 4.8-fold lower: 1.9 µg/mL (≈ 4.69 µM) for the first, 9.1 µg/mL (≈ 21.6 µM) for the second.

`COc1c(-c2c(C)cc3cccc(OC)c3c2O)c(O)cc2c1[C@@H](C)N(C)[C@@H](C)C2` [ANCISTROTANZANINE C] gave an IC50 of 4.2 µg/mL (≈ 10.3 µM).

tested on: Trypanosoma cruzi; assay: Antitrypanosomal activity against Trypanosoma cruzi; type: functional, organism-based; conditions: not given

`COc1cc(OC)c(-c2c(C)cc(OC)c3c(OC)cccc23)c2c1C(C)=N[C@@H](C)C2` and `COc1cc(OC)c2c(c1-c1c(C)cc(OC)c3c(OC)cccc13)C[C@H](C)N(C)[C@H]2C` [O,N-Dimethylancistrocladine] are within 1.5-fold of each other in IC50: 60.5 µg/mL (≈ 144 µM) for the first, 65.3 µg/mL (≈ 150 µM) for the second.

First: COc1cc2c(c(OC)c1-c1c(C)cc3cccc(OC)c3c1O)C(C)=N[C@@H](C)C2 [ANCISTROCLADIDINE]
Second: COc1cc2c(c(OC)c1-c1c(C)cc3cccc(OC)c3c1O)[C@@H](C)N(C)[C@@H](C)C2 [ANCISTROTECTORINE]
The IC50 of the first is 5.4-fold higher: 23.4 µg/mL (≈ 57.7 µM) for the first, 4.3 µg/mL (≈ 10.2 µM) for the second.

Going from `COc1c(-c2c(C)cc3cccc(OC)c3c2O)c(O)cc2c1[C@@H](C)N(C)[C@@H](C)C2` [ANCISTROTANZANINE C] to `O=C(Cn1ccnc1[N+](=O)[O-])NCc1ccccc1` [BENZNIDAZOLE], the IC50 falls from 14 µg/mL (≈ 34.4 µM) to 0.29 µg/mL (≈ 1.11 µM) (48-fold).

tested on: Trypanosoma brucei rhodesiense; assay: Antitrypanosomal activity against Trypanosoma brucei rhodesiense; type: functional, organism-based; conditions: not given

`COc1cc(OC)c(-c2c(C)cc(OC)c3c(OC)cccc23)c2c1C(C)=N[C@@H](C)C2` and `COc1cc(OC)c2c(c1-c1c(C)cc(OC)c3c(OC)cccc13)C[C@H](C)N(C)[C@H]2C` [O,N-Dimethylancistrocladine] are within 1.5-fold of each other in IC50: 5.2 µg/mL (≈ 12.4 µM) for the first, 5.4 µg/mL (≈ 12.4 µM) for the second.

Going from `COc1cc2c(c(OC)c1-c1c(C)cc3cccc(OC)c3c1O)C(C)=N[C@@H](C)C2` [ANCISTROCLADIDINE] to `COc1cc2c(c(OC)c1-c1c(C)cc3cccc(OC)c3c1O)[C@@H](C)N(C)[C@@H](C)C2` [ANCISTROTECTORINE], the IC50 rises from 2 µg/mL (≈ 4.93 µM) to 4.3 µg/mL (≈ 10.2 µM) (2.1-fold).

Compared with `COc1c(-c2c(C)cc3cccc(OC)c3c2O)c(O)cc2c1[C@@H](C)N(C)[C@@H](C)C2` [ANCISTROTANZANINE C], `Nc1nc(N)nc(Nc2ccc([As]3SCC(CO)S3)cc2)n1` (configuration not stated) [MELARSOPROL] is 420-fold lower in IC50: 1.3 µg/mL (≈ 3.19 µM) for the first, 0.0031 µg/mL for the second.

tested on: Leishmania donovani; assay: Antileishmanial activity against Leishmania donovani; type: functional, organism-based; conditions: not given

Going from `COc1cc(OC)c(-c2c(C)cc(OC)c3c(OC)cccc23)c2c1C(C)=N[C@@H](C)C2` to `COc1cc2c(c(OC)c1-c1c(C)cc3cccc(OC)c3c1O)C(C)=N[C@@H](C)C2` [ANCISTROCLADIDINE], the IC50 falls from 30 µg/mL (≈ 71.5 µM) to 2.9 µg/mL (≈ 7.15 µM) (10-fold).

tested on: not listed separately; assay: Cytotoxicity against rat L6 cells; type: cell-based; conditions: read-out: MIC

First: COc1cc(OC)c(-c2c(C)cc(OC)c3c(OC)cccc23)c2c1C(C)=N[C@@H](C)C2
Second: COc1cc(OC)c2c(c1-c1c(C)cc(OC)c3c(OC)cccc13)C[C@H](C)N(C)[C@H]2C [O,N-Dimethylancistrocladine]
The MCC of the first is higher: greater than 90 µg/mL for the first, 42.9 µg/mL for the second.

`COc1cc2c(c(OC)c1-c1c(C)cc3cccc(OC)c3c1O)C(C)=N[C@@H](C)C2` [ANCISTROCLADIDINE] and `COc1cc2c(c(OC)c1-c1c(C)cc3cccc(OC)c3c1O)[C@@H](C)N(C)[C@@H](C)C2` [ANCISTROTECTORINE] are within 1.5-fold of each other in MCC: 28.3 µg/mL for the first, 19.9 µg/mL for the second.

In the case of `COc1c(-c2c(C)cc3cccc(OC)c3c2O)c(O)cc2c1[C@@H](C)N(C)[C@@H](C)C2` [ANCISTROTANZANINE C], the MCC is reported as 40.7 µg/mL.

tested on: L6; assay: Cytotoxicity against Leishmania donovani infected rat L6 cells; type: cell-based; conditions: not given

For `COc1c(-c2c(C)cc3cccc(OC)c3c2O)c(O)cc2c1[C@@H](C)N(C)[C@@H](C)C2` [ANCISTROTANZANINE C], the Activity was “Toxic”.
With `COc1cc2c(c(OC)c1-c1c(C)cc3cccc(OC)c3c1O)[C@@H](C)N(C)[C@@H](C)C2` [ANCISTROTECTORINE] the Activity was “Toxic”.
For `COc1cc(OC)c2c(c1-c1c(C)cc(OC)c3c(OC)cccc13)C[C@H](C)N(C)[C@H]2C` [O,N-Dimethylancistrocladine], the Activity was “Toxic”.
